The source of these data is patent publication US6649568B2, “Brassinosteroid biosynthesis inhibitor” (Riken, priority 2000, dated 2003).

Assay [1] relates to brassinosteroid biosynthesis. The note with it: reported in Japanese Patent Application No. 10-227939; cited from earlier work.
The test system of assay [2] is elongation of cress lower hypocotyl. Description: Inhibition of elongation of cress lower hypocotyl, with rescue by brassinolide or gibberellin. Format: in vivo. The note with it: FIG. 2. As for the experimental part: Surfaces of cress seeds purchased were sterilized with 1% NaOCl solution for 20 minutes and washed 5 times with distilled water. The resulting cress seeds were sown on 1% agar-solidified medium (containing 0.5×Murashige and Skoog salts and 1.5% sucrose in Agripot (Kirin Brew Co., Tokyo)). The plants was grown in a growth chamber kept at 25[…] under a cycle of 16 hour light (240 μEm-2s-1) and 8 hour dark conditions. […] The inhibitory effect of the compound of the present invention against elongation of cress lower hypocotyl was suppressed by addition of blassinolide, whilst not suppressed by addition of gibberellin (FIG. 1).

On to `CC(O)(c1ccccc1)C(Cc1ccc(Cl)cc1)c1nc[nH]n1` (centres unmarked) [Brz91, 4-(4-chlorophenyl)-2-phenyl-3-(1,2,4-triazolyl)butan-2-ol], for which the “inhibitory action against the brassinosteroid biosynthesis” value in assay [1] is given as “had the desired inhibitory action”.
Consider `C=CCC(O)(c1ccccc1)C(Cc1ccc(Cl)cc1)n1cncn1` (centres unmarked) [Brz2001, 6-(4-Chlorophenyl)-4-phenyl-5-(1,2,4-triazoyl)hexen-1-en-4-ol], for which the “inhibitory action against brassinosteroid biosynthesis, comparison with Brz91” value in assay [2] is given as “inhibitory action”.
